Measured values from paper PMC10187093, “Synthesis, in silico modelling, and in vitro biological evaluation of substituted pyrazole derivatives as potential anti-skin cancer, anti-tyrosinase, and antioxidant agents” (Journal of Enzyme Inhibition and Medicinal Chemistry, 2023).
Like-named read-outs stand apart in the source and are kept apart here.

Columns and labels:
[1] = system: HaCaT; assay: MTT cytotoxicity assay, noncancerous HaCaT keratinocytes; assay type: cell-based, human; conditions: Homo sapiens, HaCaT, 48 h, read-out: IC50 HaCaT
Description: (§1) Human-derived GFP-expressing melanoma A375 and epidermoid carcinoma A431 cell lines were purchased from Angio-Proteomie (Boston, MA). Human melanoma carcinoma SK-MEL-28 and human immortalised keratinocytes (HaCaT) cell lines were acquired from American Type Culture Collection (ATCC; Manassas, VA). Human cutaneous SCC cell line SCC-12[192] was generously provided by Dr. James G. Rheinwald to Dr. Tatiana Efimova. Except SK-MEL-28, which was cultured in an RPMI-1640 medium supplemented with 5% FBS, all other human immortalised cell lines were grown and maintained in DMEM containing varying percentages of FBS; 5% FBS for A431, SCC-12, and HaCaT lines, and 10% FBS for A375. All culture media were routinely supplemented with 1% PEST 100X (100 U/mL penicillin, 100 μg/mL streptomycin), and cells were cultured in incubators maintained at 37 °C under an atmosphere of 95% humidity, 20% O2, and 5% CO2. The growth media of incubated cells were changed every 2–3 days until they attained 70–80% confluence, after which they were sub-cultured for experiments and re-passaging. DMSO was used as the vehicle to prepare a 10 mM stock solution of the test compounds.
(§2) Stock solutions (10 mM) were prepared by dissolving each compound to be screened in DMSO. From these stock solutions, escalating concentrations were prepared using the corresponding cell growth media as a diluent, and the cells (65–75% confluent) were treated with (0–40 µM) or without the drug in sext- to octuplicate and incubated for 48 h. All treatment protocols and controls were prepared as previously described.
(§3) The potency and cytotoxicity of the test compounds against two cutaneous melanoma (A375 and SK-MEL-28) and two non-melanoma (A431 and SCC-12) SC cell lines in addition to a control immortalised normal human epidermal keratinocytes (HaCaT) cell line were assessed by MTT assay as previously described.

[2] = system: A375; assay: MTT antiproliferative/cytotoxicity assay, A375; assay type: cell-based, human; conditions: Homo sapiens, A-375, 48 h, read-out: IC50 A375
Description: as §1, §2, §3

[3] = molecular target: T1, mushroom tyrosinase (Agaricus bisporus, UniProt C7FF04); assay: In vitro mushroom tyrosinase inhibition assay; assay type: biochemical; conditions: for inhibition at 500 µM: read-out: % Inhibition of tyrosinase
T1 construct: purchased Sigma-Aldrich Chemical Company (St. Louis, MO) and MP Biomedicals (Irvine, CA)
T1 sequence (C7FF04 1-392 limits assumed): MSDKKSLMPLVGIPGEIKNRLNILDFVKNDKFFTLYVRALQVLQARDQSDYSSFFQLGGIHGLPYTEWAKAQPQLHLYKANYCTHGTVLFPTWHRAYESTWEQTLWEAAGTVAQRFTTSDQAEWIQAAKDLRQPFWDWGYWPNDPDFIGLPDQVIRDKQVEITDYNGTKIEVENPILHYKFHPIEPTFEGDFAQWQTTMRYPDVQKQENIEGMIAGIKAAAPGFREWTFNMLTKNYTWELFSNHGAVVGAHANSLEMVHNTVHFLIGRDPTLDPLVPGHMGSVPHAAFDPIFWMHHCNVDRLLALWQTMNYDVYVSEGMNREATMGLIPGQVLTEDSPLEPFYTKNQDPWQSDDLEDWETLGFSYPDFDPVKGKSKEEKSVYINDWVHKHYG
Description: The anti-tyrosinase potential of all the synthesised derivatives was determined by an enzymatic tyrosinase inhibition assay based on their ability to inhibit the substrate, L-tyrosine, from binding to the tyrosinase enzyme. […] Test samples were dissolved in DMSO at a concentration of 10 mM and then diluted to different concentrations with phosphate buffer (0.1 M, pH 6.8). Each well contained 40 µL of the sample with 80 µL of phosphate buffer solution (0.1 M, pH 6.8), 40 µL of tyrosinase enzyme (100 units/mL), and 40 µL L-tyrosine (2.5 mM). The mixture was incubated for 30 min at room temperature, and absorbance was measured at 490 nm. Each sample was accompanied by a sample blank containing all components except tyrosinase. […] The percentage of tyrosinase inhibition was calculated as follows: ((ΔAcontrol – ΔAsample)/ΔAcontrol) × 100. IC50 values denoted the sample concentration required to inhibit 50% tyrosinase activity (Table S1).

[4] = system: SCC-12; assay: MTT antiproliferative/cytotoxicity assay, SCC-12; assay type: cell-based, human; conditions: for IC50: Homo sapiens, SCC12, 48 h, read-out: IC50 SCC-12; for selectivity index (SI) SCC-12: IC50 HaCaT divided by IC50 SCC-12
Description: (§4) Human-derived GFP-expressing melanoma A375 and epidermoid carcinoma A431 cell lines were purchased from Angio-Proteomie (Boston, MA). Human melanoma carcinoma SK-MEL-28 and human immortalised keratinocytes (HaCaT) cell lines were acquired from American Type Culture Collection (ATCC; Manassas, VA). […] The growth media of incubated cells were changed every 2–3 days until they attained 70–80% confluence, after which they were sub-cultured for experiments and re-passaging. DMSO was used as the vehicle to prepare a 10 mM stock solution of the test compounds.
(§5) Stock solutions (10 mM) were prepared by dissolving each compound to be screened in DMSO.

[5] = system: SK-MEL-28; assay: MTT antiproliferative/cytotoxicity assay, SK-MEL-28; assay type: cell-based, human; conditions: Homo sapiens, SK-MEL-28, 48 h, read-out: IC50 SKMEL-28
Description: as §1, §2, §3

[6] = system: GFP-A431; assay: MTT antiproliferative/cytotoxicity assay, A431; assay type: cell-based, human; conditions: for IC50: Homo sapiens, A-431, 48 h, read-out: IC50 GFP-A431; for selectivity index (SI) A431: IC50 HaCaT divided by IC50 A431
Description: as §4, §5

[7] = DPPH free radical scavenging assay; conditions: for Percent Scavenging (DPPH): 1 mM; for IC50: N.A. = No Activity, > 1000 = not biologically relevant, read-out: IC50 Value, DPPH antioxidant activity (Table S4)
Description: An initial screen was done of all 25 derivatives at a concentration of 1 mM. […] Methanol was used as the diluent, and 100 µL of DPPH (200 µM; Sigma-Aldrich, St. Louis, MO) was added to each well. […] The scavenging capacity (SC) was calculated as SC% = ((ΔAcontrol – ΔAsample)/ΔAcontrol) × 100%, where ΔAcontrol was the absorbance of the reagent blank, and ΔAsample was the absorbance of the test samples. The control contained all reagents except the compounds, and all tests were performed in triplicate. Quercetin served as a positive control. The DPPH methanolic solution (1 mL) mixed with DMSO (5 µL) served as a negative control.

[8] = control noncancerous keratinocytes, MTT
[9] = 500 µM, single-concentration screen
[10] = > 500 = not biologically relevant, read-out: IC50 Value, mushroom tyrosinase inhibition (Table S1)

Compound | IC50 [1, 8] | IC50 ([2]; melanoma, MTT, 48 h) | inhibition at 500 µM [3, 9] | IC50 [3, 10] | IC50 ([4]; non-melanoma, MTT, 48 h) | selectivity index (SI) SCC-12 [4] | IC50 ([5]; melanoma, MTT, 48 h) | IC50 ([6]; non-melanoma, MTT, 48 h) | selectivity index (SI) A431 [6] | Percent Scavenging (DPPH) [7] | IC50 [7] | IC50 [1] | IC50 [2] | IC50 ([3]; IC50 Value, mushroom tyrosinase inhibition (Table S1), > 500 = not biologically relevant) | inhibition at 500 µM [3] | IC50 [4] | IC50 [5] | IC50 [6] | IC50 ([3]; L-tyrosine substrate, read-out: IC50 tyrosinase inhibition) | DPPH antioxidant activity (in words) [7]
Cc1c2c(nn1-c1ccccc1)-c1ccccc1CC2 [P9, 3-Methyl-2-phenyl-4,5-dihydro-2H-benzo[g]indazole] | 43.6 ± 1.4 µM | 45.2 ± 2 µM | 9.49% | > 500 µM | 28.8 ± 1.4 µM | 1.5 | 40.8 ± 1 µM | 28 ± 3.6 µM | 1.6 | 5.48% | > 1000 µM |  |  |  |  |  |  |  |  | 
CCOC(=O)c1c(C)nn(-c2ccccc2)c1C [P10, Ethyl 3,5-dimethyl-1-phenyl-1H-pyrazole-4-carboxylate] |  |  |  |  |  |  |  |  |  | -11.90% |  | 68 ± 1.2 µM | 55.3 ± 2.5 µM | > 500 µM | 31% | 49.1 ± 2 µM | 43.7 ± 2.7 µM | 196 ± 3.8 µM |  | 
Cc1cc(-c2ccccc2)no1 [P11, 5-Methyl-3-phenylisoxazole] | 116 ± 10.1 µM | 57.8 ± 6.5 µM | 88 ± 0.3% | 173 µM | 44.6 ± 1.3 µM | 2.6 | 34.5 ± 1.2 µM | 43.7 ± 2.7 µM | 2.6 | -27.39% |  |  |  |  |  |  |  |  |  | 
Cc1onc2c1CCc1ccccc1-2 [P12, 3-Methyl-4,5-dihydronaphtho[1,2-c]isoxazole] | 32.6 ± 2.4 µM | 73.5 ± 3.8 µM | 69.7 ± 5% | 336 µM | 32.6 ± 2.1 µM |  | 24 ± 2 µM | 55.5 ± 3.5 µM |  | -1.13% |  |  |  |  |  |  |  |  |  | 
c1ccc(-c2cc(-c3ccccc3)n(-c3ccccc3)n2)cc1 [P13, 1,3,5-Triphenyl-1H-pyrazole] | 91.6 ± 4.1 µM | 93.4 ± 6.4 µM | 7.66% | > 500 µM | 52.8 ± 2.2 µM |  | 154 ± 2.9 µM | 181 ± 4.7 µM |  | 19.44% | > 1000 µM |  |  |  |  |  |  |  |  | 
Cc1cc(-c2ccccc2)n(-c2ccccc2)n1 [P14, 3-Methyl-1,5-diphenyl-1H-pyrazole] | 35.1 ± 2.8 µM | 25.8 ± 2.7 µM | 97.4 ± 0.2% |  | 42.5 ± 2.8 µM | 0.8 | 33.3 ± 1.7 µM | 17.8 ± 0.5 µM | 2.0 | -23.93% |  |  |  |  |  |  |  |  | 15.9 µM | inactive
FC(F)(F)c1cc(-c2ccccc2)n(-c2ccccc2)n1 [P15, 1,5-Diphenyl-3-(trifluoromethyl)-1H-pyrazole] | 53.7 ± 3.1 µM | 58.5 ± 3.4 µM | 32.2% | > 500 µM | 98 ± 5.5 µM |  | 36 ± 3.9 µM | 42.9 ± 1 µM |  | -23.36% |  |  |  |  |  |  |  |  |  | 
Cc1cc(-c2ccccc2)n(-c2ccc(Br)cc2)n1 [P16, 1-(4-Bromophenyl)-3-methyl-5-phenyl-1H-pyrazole] | 54.2 ± 3.6 µM | 46 ± 1 µM | 17.3% | > 500 µM | 19.6 ± 2 µM | 2.8 | 39.1 ± 2.3 µM | 21 ± 1.3 µM | 2.6 | -24.61% |  |  |  |  |  |  |  |  |  | 
Cc1cc(-c2ccccc2)n(-c2ccc(Cl)cc2)n1 [P17, 1-(4-Chlorophenyl)-3-methyl-5-phenyl-1H-pyrazole] | 72.4 ± 6 µM | 44.5 ± 3 µM | 95.6 ± 1.1% | 165 µM | 23.4 ± 1.7 µM | 3.1 | 34.2 ± 3.9 µM | 19.7 ± 0.8 µM | 3.7 | -23.30% |  |  |  |  |  |  |  |  |  | 
COc1ccc(-n2nc(C)cc2-c2ccccc2)cc1 [P18, 1-(4-Methoxyphenyl)-3-methyl-5-phenyl-1H-pyrazole] | 49.6 ± 1.5 µM | 48 ± 2.1 µM | 92.2 ± 3.7% | 156 µM | 21.9 ± 0.2 µM | 2.3 | 19.3 ± 2.4 µM | 25.9 ± 0.9 µM | 2.0 | -24.28% |  |  |  |  |  |  |  |  |  | 
CC1=NN(c2ccccc2)C(=O)C1(C)O (centres unmarked) [P20] | 47.7 ± 2.7 µM | 110 ± 15.4 µM | 39.7% | > 500 µM | 57.3 ± 0.2 µM |  | 50 ± 4.3 µM | 120 ± 2.6 µM |  | -20.03% |  |  |  |  |  |  |  |  |  | no appreciable antioxidant activity
